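Values below derive from 48-hour exposures of cells grown in 96-well plates, with endpoints linearly interpolated between the two concentrations bracketing the appropriate inhibition level. GI50: concentration for 50% inhibition of growth.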 Activity calls are given as the source filed them. Cut-off read from the data, not from the text of the source: active = GI50 up to about 1.1 µM and inactive = higher.

Common to all, as to experiment: NCI anticancer screen, dose series, 48 h
For test [1], the system named is NCI-H226.
For test [2], the system named is BT-549.
For test [3], the system named is IGROV-1.
For test [4], the system named is SK-MEL-5.
In test [5] the test system is CCRF-CEM.
Test [6] deals with NCI-H460.
For test [7], the system named is U-251.
The test system of test [8] is SNB-19.
Test [9] relates to CAKI-1.
In test [10] the test system is SK-MEL-28.
Test [11] deals with OVCAR-4.
Test [12] relates to HCT-15.
The test system of test [13] is OVCAR-5.
The test system of test [14] is SNB-75.
In test [15] the test system is UACC-62.
The subject of test [16] is DU-145.
The subject of test [17] is A498.
Test [18] concerns HCC 2998.
The test system of test [19] is SK-OV-3.
The subject of test [20] is M14.

For `Cc1ccc(CCCCCOc2ccc(C3=NCCO3)cc2)s1`, the GI50 in [1], in test [2], in test [3], in [4], in [5] and in [6] was > 100 µM (inactive) in each case. Also, the GI50 in [7] is > 100 µM (inactive); in test [8], > 100 µM (inactive); in [9], > 100 µM (inactive); in test [10], > 100 µM (inactive); in test [11] it was > 100 µM (inactive); in test [12], above 100 µM. In addition, the GI50 in test [13] is > 100 µM (inactive); in test [14] it was > 100 µM (inactive); in [15], > 100 µM (inactive); in [16], > 100 µM (inactive); in test [17], 1.81 µM (inactive); in [18], > 100 µM (inactive). The GI50 in test [19] and in test [20] was > 100 µM (inactive) each time.

On to `C/C(=N\c1cc(Cl)cc(Cl)c1)c1ccncc1`, for which the GI50 in test [1], in test [2], in test [3], in test [4], in [5] and in test [6] was > 100 µM (inactive) in each case. Also, the GI50 in test [7] is > 100 µM (inactive); in test [8], > 100 µM (inactive); in test [9], > 100 µM (inactive); in test [10] it was > 100 µM (inactive); in test [11], > 100 µM (inactive); in [12], above 100 µM. The GI50 is > 100 µM (inactive) in test [13]; > 100 µM (inactive) in test [14]; 15 µM (inactive) in test [15]; > 100 µM (inactive) in [16]; > 100 µM (inactive) in test [17]; > 100 µM (inactive) in test [18]. Besides, the GI50 in [19] was 29.9 µM (inactive); in test [20] it was > 100 µM (inactive).

`CN1CCN(c2cc3c(cc2F)c(=O)c(C(=O)O)cn3C2CC2)CC1CC#N` (stereo not drawn): the GI50 in test [1], in test [2], in [3], in [4], in [5] and in test [6] was > 100 µM (inactive) throughout. The GI50 in test [7] is > 100 µM (inactive); in test [8], > 100 µM (inactive); in test [9] it was > 100 µM (inactive); in test [10], > 100 µM (inactive); in test [11], > 100 µM (inactive); in [12] it was above 100 µM. Also, the GI50 in test [13], in [14], in [15], in test [16], in test [17] and in test [18] was > 100 µM (inactive) each time. The GI50 in [19] is > 100 µM (inactive).

Turning to `CCOP(=O)(OCC)/C(C#N)=C/c1cccn1C`, the GI50 in [1] was > 100 µM (inactive); in test [2], > 100 µM (inactive); in [3] it was > 100 µM (inactive); in test [4], > 100 µM (inactive); in test [5], 25.9 µM (inactive); in test [6] it was > 100 µM (inactive). For the same compound, the GI50 was > 100 µM (inactive) in test [7]; > 100 µM (inactive) in [8]; > 100 µM (inactive) in test [9]; > 100 µM (inactive) in test [10]; > 100 µM (inactive) in [11]; above 100 µM in test [12]. For the same compound, the GI50 in [13], in [14], in [15], in test [16], in test [17] and in [18] was > 100 µM (inactive) throughout. The GI50 in test [19] and in [20] was > 100 µM (inactive) throughout.

For `COc1cc2c(cc1OC)C(Cc1ccccc1CCCl)=NCC2`, the GI50 in [1] was 31.3 µM (inactive); in test [2], 40.3 µM (inactive); in test [3], 27 µM (inactive); in [4] it was 22.5 µM (inactive); in test [5], 58.7 µM (inactive); in test [6], 21.9 µM (inactive). Besides, the GI50 is 53.2 µM (inactive) in test [7]; 55.3 µM (inactive) in [8]; 76.6 µM (inactive) in test [9]; > 100 µM (inactive) in test [10]; 45.6 µM (inactive) in test [11]; 25.1 µM in [12]. In addition, the GI50 is > 100 µM (inactive) in [13]; 30.3 µM (inactive) in test [14]; 34.2 µM (inactive) in test [15]; > 100 µM (inactive) in test [16]; > 100 µM (inactive) in test [17]; 24.2 µM (inactive) in test [18]. Besides, the GI50 was > 100 µM (inactive) in test [19] and 38.1 µM (inactive) in test [20].

For the compound `Cc1ccc(C2(c3ccc(Cl)cc3)c3ccccc3C3=NCCN32)cc1` (stereo not drawn), the GI50 in test [1] was 16.3 µM (inactive); in test [2], 12.6 µM (inactive); in test [3], 2.15 µM (inactive); in test [4] it was 10.9 µM (inactive); in test [5] it was 4.5 µM (inactive); in test [6], 6 µM (inactive). The GI50 in [7] is 11.5 µM (inactive); in test [8], 13.7 µM (inactive); in test [9] it was 21.5 µM (inactive); in test [10] it was 14.7 µM (inactive); in test [11], 1.83 µM (inactive); in test [12] it was 11.6 µM. The GI50 in test [13] is 12.5 µM (inactive); in test [14] it was 12.2 µM (inactive); in test [15] it was 7.1 µM (inactive); in test [16], 13.2 µM (inactive); in [17] it was 4.92 µM (inactive); in test [18], 5.58 µM (inactive). Further, the GI50 was 6.08 µM (inactive) in test [19] and 3.7 µM (inactive) in test [20].

With `Nn1c(Sc2nc3ccccc3c(=O)n2N)nc2ccccc2c1=O`, the GI50 in [1] is 1.71 µM (inactive); in [2] it was 1.77 µM (inactive); in test [3] it was 6.5 µM (inactive); in test [4] it was 3.96 µM (inactive); in test [5], 0.94 µM (active); in [6], 19.5 µM (inactive). Also, the GI50 in test [7] was 7.03 µM (inactive); in test [8] it was 6.92 µM (inactive); in test [9], 6.37 µM (inactive); in [10], 4.84 µM (inactive); in test [11], 26.7 µM (inactive); in test [12], 3.37 µM. Moreover, the GI50 in test [13] was 16.5 µM (inactive); in test [14], 11.6 µM (inactive); in [15] it was 11.5 µM (inactive); in test [16], 20.2 µM (inactive); in test [17], 16 µM (inactive); in test [18] it was 15.2 µM (inactive). Also, the GI50 was 20.4 µM (inactive) in test [19] and 1.8 µM (inactive) in [20].

On to `CO/N=C(\C)c1cccc(Nc2nc3ccccc3c3occc23)c1`, for which the GI50 is 1.56 µM (inactive) in test [1]; 13.5 µM (inactive) in test [2]; 14.8 µM (inactive) in test [4]; 12.5 µM (inactive) in [5]; 11.8 µM (inactive) in test [6]; 15.9 µM (inactive) in test [7]. In addition, the GI50 was 15.7 µM (inactive) in [8]; 10.8 µM (inactive) in [9]; 14.3 µM (inactive) in test [10]; 14.8 µM (inactive) in [11]; 10.4 µM in [12]; 13.8 µM (inactive) in [13]. Also, the GI50 in test [14] is 15.3 µM (inactive); in test [15], < 0.01 µM (active); in [16], 15.8 µM (inactive); in [17] it was 3.61 µM (inactive); in test [18] it was 15.1 µM (inactive); in test [19], 14.1 µM (inactive). For the same compound, the GI50 in [20] is 16.7 µM (inactive).

Turning to `CSc1nc(SC)c2c(C)cn(COCCOC(=O)c3ccccc3)c2n1`, the GI50 is > 100 µM (inactive) in [1]; > 100 µM (inactive) in test [2]; > 100 µM (inactive) in test [3]; > 100 µM (inactive) in test [4]; 64.1 µM (inactive) in test [5]; 88.5 µM (inactive) in test [6]. The GI50 is > 100 µM (inactive) in test [7]; > 100 µM (inactive) in [8]; > 100 µM (inactive) in [9]; > 100 µM (inactive) in test [10]; > 100 µM (inactive) in [11]; above 100 µM in test [12]. The GI50 in [13] was > 100 µM (inactive); in test [14], 50.2 µM (inactive); in test [15], > 100 µM (inactive); in test [16], 69.8 µM (inactive); in test [17], 42.6 µM (inactive); in test [18], > 100 µM (inactive). The GI50 in test [19] was 24.3 µM (inactive); in [20], > 100 µM (inactive).

In the case of `COC(=O)[C@]1(c2cc3ccccc3[nH]2)CC2CN(CC(=O)N(C)OC)C1C1OC(C)(C)OC21` (stereo partly drawn), the GI50 in test [1] was 56 µM (inactive); in [2] it was 43 µM (inactive); in [3] it was 59.3 µM (inactive); in [4], 31 µM (inactive); in test [5], 53.8 µM (inactive); in [6], 39 µM (inactive). Besides, the GI50 in test [7] was 54.3 µM (inactive); in test [8] it was 92.9 µM (inactive); in test [9] it was 54.2 µM (inactive); in test [10], > 100 µM (inactive); in [11], 36.9 µM (inactive); in test [12], 39.9 µM. Also, the GI50 in test [13] was > 100 µM (inactive); in test [14] it was > 100 µM (inactive); in [15], 61.7 µM (inactive); in test [16] it was > 100 µM (inactive); in test [17] it was 24 µM (inactive); in [18], 38 µM (inactive). In addition, the GI50 in test [19] was > 100 µM (inactive); in test [20], 41.3 µM (inactive).

Values taken from ChEMBL document CHEMBL1201862, “PubChem BioAssay data set” (2004).
